Source: patent US9840478B2 (MERCK SHARP & DOHME CORP., priority 2013, dated 2017)

Tested on: HIV-1 (H9IIIB strain)
Assay: Cell-based HIV infection assay using a reporter (Cell-Based), MT4-GFP cells
Settings: Human immunodeficiency virus 1, MT4-GFP cells infected with HIV-1 H9IIIB; 50% normal human serum; mean of at least two independent experiments; read-out: Cell-based IP
Method in brief: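 IC50 from 4-parameter dose-response of % viral growth inhibition, using the 48 h/24 h infected-cell ratio scaled between DMSO and a protease/integrase/NNRTI triple-drug control. Assay used MT4 cells with HIV-LTR-GFP reporter, pre-infected 24 h with HIV-1 H9IIIB, in 50% normal human serum.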

`CC(C)[C@H](c1ccc(Cl)cc1)[C@H](N)C(=O)Nc1cccc(F)c1CC[C@H]1CNC[C@H](C)N1S(=O)(=O)C1CC1` [Example 127, (βR)-4-chloro-N-(2-{2-[(2S,6S)-1-(cyclopropylsulfonyl)-6-methylpiperazin-2-yl]ethyl}-3-fluorophenyl)-β-(1-methylethyl)-L-phenylalaninamide] was tested, and the IC50 was 300 nM.
Molecule `CC(C)[C@H](c1ccc(Cl)cc1)[C@H](N)C(=O)Nc1cccc(F)c1CC[C@H]1CNC[C@@H](C)N1S(=O)(=O)C1CC1` [Example 128, (βR)-4-chloro-N-(2-{2-[(2S,6R)-1-(cyclopropylsulfonyl)-6-methylpiperazin-2-yl]ethyl}-3-fluorophenyl)-β-(1-methylethyl)-L-phenylalaninamide] has an IC50 of 610 nM.
Molecule `C[C@H]1CNC[C@H](CCc2c(F)cccc2NC(=O)[C@@H](N)[C@@H](c2ccc(F)cc2)C2CCOCC2)N1S(C)(=O)=O` [Example 129, (βR)-4-fluoro-N-(3-fluoro-2-{2-[(2S,6S)-6-methyl-1-(methylsulfonyl)piperazin-2-yl]ethyl}phenyl)-β-(tetrahydro-2H-pyran-4-yl)-L-phenylalaninamide] has an IC50 of 210 nM.
Work on `COC(=O)N[C@H](C(=O)Nc1cccc(F)c1CC[C@H]1CNC[C@H](C)N1S(C)(=O)=O)[C@@H](c1ccc(F)cc1)C1CCOCC1` [Example 130, (βR)-4-fluoro-N-(3-fluoro-2-{2-[(2S,6S)-6-methyl-1-(methylsulfonyl)piperazin-2-yl]ethyl}phenyl)-Nα-(methoxycarbonyl)-β-(tetrahydro-2H-pyran-4-yl)-L-phenylalaninamide] yielded an IC50 of 55 nM.
`C[C@H]1CNC[C@H](CCc2c(F)cccc2NC(=O)[C@@H](N)[C@@H](c2ccc(Cl)cc2)C2CCOCC2)N1S(=O)(=O)c1ccccc1` [Example 131, (βR)-4-chloro-N-(3-fluoro-2-{2-[(2S,6S)-6-methyl-1-(phenylsulfonyl)piperazin-2-yl]ethyl}phenyl)-β-(tetrahydro-2H-pyran-4-yl)-L-phenylalaninamide] was tested, and the IC50 was 17 nM.
Molecule `COC(=O)N[C@H](C(=O)Nc1cccc(F)c1CC[C@H]1CNC[C@H](C)N1S(=O)(=O)c1ccccc1)[C@@H](c1ccc(Cl)cc1)C1CCOCC1` [Example 132, (βR)-4-chloro-N-(3-fluoro-2-{2-[(2S,6S)-6-methyl-1-(phenylsulfonyl)piperazin-2-yl]ethyl}phenyl)-Nα-(methoxycarbonyl)-β-(tetrahydro-2H-pyran-4-yl)-L-phenylalaninamide] has an IC50 of 11 nM.
`C[C@@H]1CNC[C@H](CCc2c(F)cccc2NC(=O)[C@@H](N)C(c2cccc(F)c2)c2cccc(F)c2)N1S(=O)(=O)c1ccccc1` [Example 133, 3-fluoro-N-(3-fluoro-2-{2-[(2S,6R)-6-methyl-1-(phenylsulfonyl)piperazin-2-yl]ethyl}phenyl)-β-(3-fluorophenyl)-L-phenylalaninamide] showed an IC50 of 55 nM.
`COC(=O)N[C@H](C(=O)Nc1cccc(F)c1CC[C@H]1CNC[C@@H](C)N1S(=O)(=O)c1ccccc1)C(c1cccc(F)c1)c1cccc(F)c1` [Example 134, 3-fluoro-N-(3-fluoro-2-{2-[(2S,6R)-6-methyl-1-(phenylsulfonyl)piperazin-2-yl]ethyl}phenyl)-β-(3-fluorophenyl)-Nα-(methoxycarbonyl)-L-phenylalaninamide] gave an IC50 of 63 nM.
In the case of `C[C@@H]1CNC[C@H](CCc2c(F)cncc2NC(=O)[C@@H](N)[C@@H](c2ccc(Cl)cc2)c2cccc(F)c2)N1S(=O)(=O)c1ccccc1` [Example 135, (βS)-4-chloro-N-(5-fluoro-4-{2-[(2S,6R)-6-methyl-1-(phenylsulfonyl)piperazin-2-yl]ethyl}pyridin-3-yl)-β-(3-fluorophenyl)-L-phenylalaninamide], the IC50 is reported as 23 nM.
For `COC(=O)N[C@H](C(=O)Nc1cncc(F)c1CC[C@H]1CNC[C@H](C)N1S(=O)(=O)c1ccc(OC)cc1)[C@@H](c1ccc(Cl)cc1)C1CCOCC1` [Example 136, (βR)-4-chloro-N-[5-fluoro-4-(2-{(2S,6S)-1-[(4-methoxyphenyl)sulfonyl]-6-methylpiperazin-2-yl}ethyl)pyridin-3-yl]-Nα-(methoxycarbonyl)-β-(tetrahydro-2H-pyran-4-yl)-L-phenylalaninamide], the IC50 was 10 nM.
For `C[C@H]1CNC[C@H](CCc2c(F)cccc2NC(=O)[C@@H](N)C(c2cccc(F)c2)c2cccc(F)c2)N1S(=O)(=O)c1ccccc1Cl` [Example 137, N-[2-(2-{(2S,6S)-1-[(2-chlorophenyl)sulfonyl]-6-methylpiperazin-2-yl}ethyl)-3-fluorophenyl]-3-fluoro-β-(3-fluorophenyl)-L-phenylalaninamide], the IC50 was 240 nM.
`COC(=O)N[C@H](C(=O)Nc1cccc(F)c1CC[C@H]1CNC[C@H](C)N1S(=O)(=O)c1ccccc1Cl)C(c1cccc(F)c1)c1cccc(F)c1` [Example 138, N-[2-(2-{(2S,6S)-1-[(2-chlorophenyl)sulfonyl]-6-methylpiperazin-2-yl}ethyl)-3-fluorophenyl]-3-fluoro-β-(3-fluorophenyl)-Nα-(methoxycarbonyl)-L-phenylalaninamide] was tested, and the IC50 was 150 nM.
With `COC(=O)N[C@H](C(=O)Nc1cccc(F)c1CC[C@H]1CNC[C@H](C)N1S(C)(=O)=O)[C@@H](c1ccc(Cl)cc1)C1CCOCC1` [Example 139, (βR)-4-chloro-N-(3-fluoro-2-{2-[(2S,6S)-6-methyl-1-(methylsulfonyl)piperazin-2-yl]ethyl}phenyl)-Nα-(methoxycarbonyl)-β-(tetrahydro-2H-pyran-4-yl)-L-phenylalaninamide] the IC50 was 36 nM.
In the case of `CC(C)[C@H](c1ccc(Cl)cc1)[C@H](N)C(=O)Nc1cccc(F)c1CC[C@H]1CNC[C@H](C)N1S(=O)(=O)c1ccc(OC(F)(F)F)cc1` [Example 140, (βR)-4-chloro-N-(3-fluoro-2-{2-[(2S,6S)-6-methyl-1-{[4-(trifluoromethoxy)phenyl]sulfonyl}piperazin-2-yl]ethyl}phenyl)-β-(1-methylethyl)-L-phenylalaninamide], the IC50 is reported as 250 nM.
With `C[C@H]1CNC[C@H](CCc2c(F)cccc2NC(=O)[C@@H](N)[C@@H](c2ccc(Cl)cc2)C2CCOCC2)N1S(=O)(=O)C1CC1` [Example 141, (βR)-4-chloro-N-(2-{2-[(2S,6S)-1-(cyclopropylsulfonyl)-6-methylpiperazin-2-yl]ethyl}-3-fluorophenyl)-β-(tetrahydro-2H-pyran-4-yl)-L-phenylalaninamide] the IC50 was 77 nM.
With `COC(=O)N[C@H](C(=O)Nc1cccc(F)c1CC[C@H]1CNC[C@H](C)N1S(=O)(=O)c1ccc(OC(F)(F)F)cc1)[C@@H](c1ccc(Cl)cc1)C(C)C` [Example 142, (βR)-4-chloro-N-(3-fluoro-2-{2-[(2S,6S)-6-methyl-1-{[4-(trifluoromethoxy)phenyl]sulfonyl}piperazin-2-yl]ethyl}phenyl)-Nα-(methoxycarbonyl)-β-(1-methylethyl)-L-phenylalaninamide] the IC50 was 84 nM.
`COC(=O)N[C@H](C(=O)Nc1cccc(F)c1CC[C@H]1CNC[C@H](C)N1S(=O)(=O)c1ccccc1Cl)[C@@H](c1ccc(Cl)cc1)C(C)C` [Example 143, (βR)-4-chloro-N-[2-(2-{(2S,6S)-1-[(2-chlorophenyl)sulfonyl]-6-methylpiperazin-2-yl}ethyl)-3-fluorophenyl]-Nα-(methoxycarbonyl)-β-(1-methylethyl)-L-phenylalaninamide] showed an IC50 of 570 nM.
Molecule `COC(=O)N[C@H](C(=O)Nc1cccc(F)c1CC[C@H]1CNC[C@H](C)N1S(=O)(=O)C1CC1)[C@@H](c1ccc(Cl)cc1)C(C)C` [Example 144, (βR)-4-chloro-N-(2-{2-[(2S,6S)-1-(cyclopropylsulfonyl)-6-methylpiperazin-2-yl]ethyl}-3-fluorophenyl)-Nα-(methoxycarbonyl)-β-(1-methylethyl)-L-phenylalaninamide] has an IC50 of 93 nM.
Work on `COC(=O)N[C@H](C(=O)Nc1cccc(F)c1CC[C@H]1CNC[C@@H](C)N1S(=O)(=O)C1CC1)[C@@H](c1ccc(Cl)cc1)C(C)C` [Example 145, (βR)-4-chloro-N-(2-{2-[(2S,6R)-1-(cyclopropylsulfonyl)-6-methylpiperazin-2-yl]ethyl}-3-fluorophenyl)-Nα-(methoxycarbonyl)-β-(1-methylethyl)-L-phenylalaninamide] yielded an IC50 of 170 nM.
In the case of `COC(=O)N[C@H](C(=O)Nc1cccc(F)c1CC[C@H]1CNC[C@@H](C)N1S(C)(=O)=O)[C@@H](c1ccc(F)cc1)C1CCOCC1` [Example 146, (βR)-4-fluoro-N-(3-fluoro-2-{2-[(2S,6R)-6-methyl-1-(methylsulfonyl)piperazin-2-yl]ethyl}phenyl)-Nα-(methoxycarbonyl)-β-(tetrahydro-2H-pyran-4-yl)-L-phenylalaninamide], the IC50 is reported as 72 nM.
Work on `CCOC(=O)N[C@H](C(=O)Nc1cccc(F)c1CC[C@H]1CNC[C@@H](C)N1S(=O)(=O)c1ccccc1)[C@@H](c1ccc(Cl)cc1)C1CCOCC1` [Example 148, (βR)-4-chloro-Nα-(ethoxycarbonyl)-N-(3-fluoro-2-{2-[(2S,6R)-6-methyl-1-(phenylsulfonyl)piperazin-2-yl]ethyl}phenyl)-β-(tetrahydro-2H-pyran-4-yl)-L-phenylalaninamide] yielded an IC50 of 8.8 nM.
In the case of `COc1ccc([C@H](c2ccc(Cl)cc2)[C@H](N)C(=O)Nc2cccc(F)c2CC[C@H]2CNC[C@H](C)N2S(=O)(=O)C2CC2)cn1` [Example 150, (βS)-4-chloro-N-(2-{2-[(2S,6S)-1-(cyclopropylsulfonyl)-6-methylpiperazin-2-yl]ethyl}-3-fluorophenyl)-β-(6-methoxypyridin-3-yl)-L-phenylalaninamide], the IC50 is reported as 26 nM.
Molecule `COC(=O)N[C@H](C(=O)Nc1cccc(F)c1CC[C@H]1CNC[C@H](C)N1S(=O)(=O)C1CC1)[C@@H](c1ccc(Cl)cc1)c1ccc(OC)nc1` [Example 151, (βS)-4-chloro-N-(2-{2-[(2S,6S)-1-(cyclopropylsulfonyl)-6-methylpiperazin-2-yl]ethyl}-3-fluorophenyl)-Nα-(methoxycarbonyl)-β-(6-methoxypyridin-3-yl)-L-phenylalaninamide] has an IC50 of 17 nM.
